{
  "source": "patent US20250345390A1",
  "about": "“COMBINATION THERAPIES” (Gilead Sciences, Inc., priority 2024, published 2025)",
  "system": "HDV",
  "assay": "HBV/HDV co-infected viral spread assay in primary human hepatocytes (PHH)",
  "assay_type": "cell-based, hepatitis D virus (HDV) in primary human hepatocytes",
  "details": "primary infection; lonafarnib 5 μM to 6.9 nM for 9 days; BLV 0.8 nM where present",
  "protocol": "Cryopreserved PHH were thawed and cells were recovered by centrifugation at 100×g (Beckman Coulter, Allegra X-14R) through cryopreserved hepatocyte recovery medium (Thermo Fisher Scientific; CM7500) and plated in collagen coated 96-well plates (Thermo Fisher Scientific; CM1096) at a density of 70,000 live cells per well. Cells were plated in William's E medium (Thermo Fisher Scientific; A1217601) supplemented with 3.6% hepatocyte thawing and plating supplement (Thermo Fisher Scientific, A15563), 5% fetal bovine serum (Thermo Fisher Scientific; 16000-036), 1 μM dexamethasone (Thermo Fisher Scientific, A15563), and 0.2% Torpedo antibiotic mix (BioreclamationIVT; Z990008). […]\nVehicle and compound containing wells were normalized such that the final concentration of DMSO was 1.5% (v/v). The medium was collected and extracellular HBsAg was measured by an electrochemiluminescence assay (MSD) according to the manufacturer's instructions (Meso Scale Diagnostics, Rockville, MD). […] Levels of HDV RNA were calculated as fold change relative to DMSO treated sample using the 2-ΔΔCt method (Livak K J, Schmittgen T D. Analysis of relative gene expression data using real-time quantitative PCR and the 2(-Delta Delta C(T)) Method. Methods 2001).",
  "data": [
    {"smiles": "NC(=O)N1CCC(CC(=O)N2CCC([C@H]3c4ncc(Br)cc4CCc4cc(Cl)cc(Br)c43)CC2)CC1", "note": "[lonafarnib, (R)-4-(2-(4-(3,10-dibromo-8-chloro-6,11-dihydro-5H-benzo[5,6]cyclohepta[1,2-b]pyridin-11-yl)piperidin-1-yl)-2-oxoethyl)piperidine-1-carboxamide]", "values": [
      {"measurement": "intracellular HDV RNA (qRT-PCR, fold change relative to DMSO)", "result": "induced dose-dependent intracellular accumulation of HDV RNA"}
    ]}
  ]
}
